Results taken from ChEMBL document CHEMBL5038668 (J Med Chem, 2022).

Key:
CYP3A4 = CYP3A4 (Homo sapiens, UniProt P08684); experiment: Inhibition of human CYP3A4 at 10 uM incubated for 60 mins by LC/MS/MS analysis relative to control; assay type: ADME
[1] = Lipophilicity, log D of compound at pH 7.4; conditions: buffer
[2] = biological target: Cholesterol 24-hydroxylase (Homo sapiens, UniProt Q9Y6A2); experiment: biochemical
Description: Inhibition of CH24H expressing human 293-F cells for 15 minutes using [14C] cholesterol as substrate and measured after 5 hrs by trypan blue staining based thin-layer chromatography

CYP2C8 = biological target: T1, CYP2C8 (Homo sapiens, UniProt P10632); experiment: Inhibition of human CYP2C8 at 10 uM incubated for 60 mins by LC/MS/MS analysis relative to control; assay type: ADME
T1 sequence (P10632 whole entry): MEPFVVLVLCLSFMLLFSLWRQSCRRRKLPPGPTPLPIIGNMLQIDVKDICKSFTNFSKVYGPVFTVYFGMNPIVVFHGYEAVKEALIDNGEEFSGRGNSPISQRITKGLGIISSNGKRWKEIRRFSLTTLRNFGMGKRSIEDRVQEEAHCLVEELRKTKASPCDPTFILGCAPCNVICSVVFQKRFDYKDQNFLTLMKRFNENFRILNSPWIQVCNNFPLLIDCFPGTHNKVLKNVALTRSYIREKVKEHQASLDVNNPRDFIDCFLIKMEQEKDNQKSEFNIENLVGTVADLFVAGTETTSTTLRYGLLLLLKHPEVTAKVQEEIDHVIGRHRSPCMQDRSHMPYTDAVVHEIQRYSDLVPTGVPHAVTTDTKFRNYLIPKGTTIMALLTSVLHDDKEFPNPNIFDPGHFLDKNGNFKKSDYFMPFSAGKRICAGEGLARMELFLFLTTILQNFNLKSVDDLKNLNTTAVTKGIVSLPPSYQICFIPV

CYP2C9 = CYP2C9 (Homo sapiens, UniProt P11712); experiment: Inhibition of human CYP2C9 at 10 uM incubated for 60 mins by LC/MS/MS analysis relative to control; assay type: ADME
CYP2C9, sequence (P11712 whole entry): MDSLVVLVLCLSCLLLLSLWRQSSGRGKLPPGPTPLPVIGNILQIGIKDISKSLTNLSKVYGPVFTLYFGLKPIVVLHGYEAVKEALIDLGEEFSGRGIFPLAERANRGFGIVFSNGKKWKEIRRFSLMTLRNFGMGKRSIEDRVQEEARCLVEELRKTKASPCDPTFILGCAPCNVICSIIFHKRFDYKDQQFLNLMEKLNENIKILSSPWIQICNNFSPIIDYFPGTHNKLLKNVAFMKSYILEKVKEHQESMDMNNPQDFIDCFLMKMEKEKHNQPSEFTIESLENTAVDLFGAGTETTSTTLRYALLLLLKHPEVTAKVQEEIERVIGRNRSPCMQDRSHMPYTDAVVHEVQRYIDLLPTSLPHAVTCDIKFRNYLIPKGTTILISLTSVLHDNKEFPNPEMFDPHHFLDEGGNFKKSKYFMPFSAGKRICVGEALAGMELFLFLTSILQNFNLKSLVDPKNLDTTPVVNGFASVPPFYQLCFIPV

CYP2D6 = CYP2D6 (Homo sapiens, UniProt P10635); experiment: Inhibition of human CYP2D6 at 10 uM incubated for 60 mins by LC/MS/MS analysis relative to control; assay type: ADME
CYP2D6, sequence (P10635 whole entry): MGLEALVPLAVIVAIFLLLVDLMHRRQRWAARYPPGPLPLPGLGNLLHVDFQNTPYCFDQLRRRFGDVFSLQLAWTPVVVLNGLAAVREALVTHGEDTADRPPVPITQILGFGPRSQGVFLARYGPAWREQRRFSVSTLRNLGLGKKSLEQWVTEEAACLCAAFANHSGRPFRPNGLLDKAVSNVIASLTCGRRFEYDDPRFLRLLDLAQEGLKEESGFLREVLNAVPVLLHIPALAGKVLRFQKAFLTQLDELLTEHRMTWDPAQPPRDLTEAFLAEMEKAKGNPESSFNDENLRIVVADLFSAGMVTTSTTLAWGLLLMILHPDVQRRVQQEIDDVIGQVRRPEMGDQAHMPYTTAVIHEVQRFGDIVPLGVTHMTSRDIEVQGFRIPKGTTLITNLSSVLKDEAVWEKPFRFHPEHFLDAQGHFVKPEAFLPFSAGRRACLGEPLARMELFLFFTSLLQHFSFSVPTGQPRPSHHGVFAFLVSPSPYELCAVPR

[3] = Plasma concentration in C57BL/6N mouse at 30 mg/kg, po and measured at 1 hr by LC/MS/MS analysis; assay type: ADME, organism-based
[4] = Drug concentration in brain of C57BL/6N mouse at 30 mg/kg,po and measured at 1 hrs by LC/MS/MS analysis; assay type: ADME, organism-based; conditions: read-out: Ct
Brain = experiment: In vivo inhibition of […] CH24H in C57BL/6N mouse brain assessed as reduction in 24HC level at 30 mg/kg, po for 3 days by HPLC analysis; assay type: functional; conditions: 72 h, time 3 day

CYP3A4, sequence (P08684 whole entry): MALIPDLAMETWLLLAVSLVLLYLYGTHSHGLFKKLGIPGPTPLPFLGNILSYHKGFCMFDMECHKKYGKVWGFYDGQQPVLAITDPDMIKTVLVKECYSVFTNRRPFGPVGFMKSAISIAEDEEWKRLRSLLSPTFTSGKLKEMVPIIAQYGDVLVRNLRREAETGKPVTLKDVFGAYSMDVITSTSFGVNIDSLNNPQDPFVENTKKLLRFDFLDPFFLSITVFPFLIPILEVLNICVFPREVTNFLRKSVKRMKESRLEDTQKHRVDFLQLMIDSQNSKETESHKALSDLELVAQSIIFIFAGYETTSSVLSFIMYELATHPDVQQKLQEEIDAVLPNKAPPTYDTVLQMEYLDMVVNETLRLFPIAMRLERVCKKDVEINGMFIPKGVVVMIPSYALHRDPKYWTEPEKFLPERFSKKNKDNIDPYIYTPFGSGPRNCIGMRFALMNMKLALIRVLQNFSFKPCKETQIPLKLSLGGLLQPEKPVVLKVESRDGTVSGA
Cholesterol 24-hydroxylase, sequence (Q9Y6A2 whole entry): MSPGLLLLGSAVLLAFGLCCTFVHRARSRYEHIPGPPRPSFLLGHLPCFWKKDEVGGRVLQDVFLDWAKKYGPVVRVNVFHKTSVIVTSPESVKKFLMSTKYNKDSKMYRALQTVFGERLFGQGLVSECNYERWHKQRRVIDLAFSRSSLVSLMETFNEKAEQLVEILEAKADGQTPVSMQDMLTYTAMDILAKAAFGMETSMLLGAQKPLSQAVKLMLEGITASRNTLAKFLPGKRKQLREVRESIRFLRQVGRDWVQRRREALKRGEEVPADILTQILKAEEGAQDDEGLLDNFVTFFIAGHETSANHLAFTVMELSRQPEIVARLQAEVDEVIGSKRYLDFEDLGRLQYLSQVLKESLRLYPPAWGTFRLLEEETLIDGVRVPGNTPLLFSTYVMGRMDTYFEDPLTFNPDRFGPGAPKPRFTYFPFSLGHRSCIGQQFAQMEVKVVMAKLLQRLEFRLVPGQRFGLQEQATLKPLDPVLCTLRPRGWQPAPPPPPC

Row | Compound | inhibition at 1 h, 10 µM (CYP3A4) [%] | logD [1] | IC50 [2] [nM] | also measured
1 | CN(C)C(=O)C1CCN(c2cnccc2-n2cc(Br)cn2)CC1 | 31 | 2.1 | 9.5 | 
2 | Cc1ccn(-c2ccncc2N2CCC(C(=O)N(C)C)CC2)n1 | 5 | 1.5 | 1100 | 
3 | O=C(NC1CC1)N1CCC(c2cnccc2-c2ccccc2)CC1 |  |  | 950 | 
4 | O=C(NC1CC1)N1CCN(c2cnccc2-c2ccccc2)CC1 |  |  | 52 | 
5 | CN(C)C(=O)C1CCN(c2cncnc2-c2ccccc2)CC1 | 28 | 1.7 | 16 | 
6 | CN(C)C(=O)C1CCN(c2cnccc2-n2cccn2)CC1 | 1 | 1.1 | 48 | 
7 | CN(C)C(=O)C1CCN(c2cnccc2-c2ccccn2)CC1 | 11 | 1.2 | 68 | 
8 | O=C(NC1CC1)C1CCN(c2cnccc2-c2ccccn2)CC1 | 29 | 1.3 | 160 | 
9 | CN(C)C(=O)C1CCN(c2cncnc2-c2ccc(F)cc2)CC1 | 37 | 1.9 | 7.3 | 
10 | S=C(NC1CCCCC1)N1CCC(c2cnc[nH]2)CC1 [THIOPERAMIDE] |  |  | 430 | 
11 | CN(C)C(=O)C1CCN(c2cnccc2-n2cc(C(F)(F)F)cn2)CC1 | 47 | 2.1 | 65 | 
12 | CCN(C)C(=O)C1CCN(c2cncnc2-c2ccccc2)CC1 | 35 | 2.1 | 14 | 
13 | CN(C)C(=O)C1CCN(c2cnccc2-n2cc(C3CC3)cn2)CC1 | 56 | 2.1 | 12 | 
14 | O=C(NC1CC1)C1CCN(c2cnccc2-c2ccccc2)CC1 | 83 | 2.5 | 8.1 | 
15 | CN(C)C(=O)C1CCN(c2cnccc2-n2cc(Cl)cn2)CC1 | 19 |  | 24 | 
16 | Cc1cnn(-c2ccncc2N2CCC(C(=O)N(C)C)CC2)c1 | 21 | 1.6 | 8.5 | inhibition at 1 h, 10 µM (CYP2C8): 2%; inhibition at 1 h, 10 µM (CYP2C9): 19%; inhibition at 1 h, 10 µM (CYP2D6): 3%; concentration at 1 h [3]: 179 µM; concentration at 1 h [4]: 0.102 µM; inhibition in vivo at 30 mg/kg (Brain): 26%
17 | O=C(NC1CC1)c1ccc(-c2cnccc2-c2ccccc2)cc1 |  |  | 74 | 
18 | O=C(Nc1ccccc1)C1CCN(c2cncnc2-c2ccccc2)CC1 | 84 | 2.7 | 28 | 
19 | CNC(=O)C1CCN(c2cncnc2-c2ccccc2)CC1 | 31 | 1.4 | 72 | 
20 | O=C(NC1CC1)C1CCN(c2cncnc2-c2ccccc2)CC1 | 50 | 1.8 | 44 | 
21 | CCNC(=O)C1CCN(c2cncnc2-c2ccccc2)CC1 | 42 | 1.8 | 58 | 
22 | Cc1cnc(-c2ccncc2N2CCC(C(=O)N(C)C)CC2)s1 | 32 | 2 | 12 | 
